Results: US9233946B2, “Sulfonamide compounds” (KANCERA AB, priority 2010, dated 2016)

Test system: PANC-1 cells
Test: Quantification of F-2,6-P2 in PANC-1 cells
Type: cell-based
Settings: Homo sapiens, PANC-1; read-out: IC50 based on quantification of F-2,6-P2
Excerpt: The relative kinase (formation) and phosphatase (degradation) activities of the bi-functional enzymes PFKFB3 and PFKFB4 control the intracellular levels of the regulator F-2,6-P2, which acts as an allosteric activator of glycolysis. The levels of F-2,6-P2 have been determined in three different cancer cell lines (MCF-7, PANC-1 and NUGC-3) using the van Shaftingen assay. The assay protocols described under “Methods for measurement of enzymatic activity of PFKFB3 and PFKFB4, Method A” have been adapted for the measurement of the inhibitory effect of compounds on the kinase activity of the various isoforms of the bifunctional enzyme (endogenously expressed) in the different cell lines. The modifications are described in the protocol below. All reagents were purchased from commercial sources or prepared inhouse.
Cell Line B (PANC-1, Human Pancreatic Carcinoma Cell Line)
• Cells: PANC-1 (ATCC-CRL-1469). Lot. no: 58564651. • Growth medium: Dulbecco's Modified Eagle's Medium, DMEM, ATCC-30-2002 10% FBS, Invitrogen, 10106-169
Cells were seeded at a concentration of 250 000 cells/mL in 100 μL growth medium (25 000 cells/well)
Starvation medium: DMEM/F12 without phenol red and glucose free, SVA, 991373 0.25% FBS, Invitrogen, 10106-169
Induction medium: DMEM/F12 without phenol red and glucose free, SVA, 991373 0.25% FBS, Invitrogen, 10106-169 (same as starvation medium)
Cells were seeded in 96-well Corning Costar tissue culture plates (CLS3595, Sigma-Aldrich) using the concentrations specified above for the three different cell lines A-C and incubated over night at 37° C. and 5% CO2. Row A was left empty. Next day the growth medium was discarded and replaced with 100 μL starvation medium. The plates were incubated for 18 h at 37° C. and 5% CO2. After 18 h of starvation the cells were induced with 100 μL compound or control solutions. Compounds were either tested in two concentrations (50 μM and 10 μM) or in dose response curves starting from 50 μM and the final DMSO concentration in assay plates was 0.5%. Also a dose response curve of a reference inhibitor was included in row H on each plate. All compounds were tested in duplicate plates. Compounds (in 96 well CLS 3365, Sigma-Aldrich) were serial diluted in DMSO from 10 mM compound DMSO stock solutions with Janus (automated liquid handling workstation from PerkinElmer). 5 μL were transferred to a Greiner deep well plate (736-0155, VWR) with 495 μL starvation medium. The final start concentration of compounds in the dilution plate was 100 μM, 1% DMSO. For compounds tested as single points, 10 mM compound solutions were diluted five fold in DMSO to 2 mM, followed by the transfer of 5 μL to separate dilution plates with 495 μL starvation medium. The final concentration of compounds in these dilution plates were 100 or 20 μM, respectively, and final concentration of DMSO was 1%. The plates were incubated at 37° C. and 5% CO2 for 1 h, followed by the addition of 10 μL 20 mM D-glucose in starvation medium. Controls, with and without 1 mM glucose, were included in row B. The final assay volume was 210 μL per well. After 2 h of incubation at 37° C. and 5% CO2, supernatants were discarded and the cells were lysed by the addition of 25 μL 250 mM NaOH. The plates were incubated at 37° C. and 5% CO2 for 5 min followed by an addition of 75 μL MilliQ dH2O. The supernatants were further diluted with 210 μL MilliQ dH2O to a final concentration of 20 mM NaOH. 200 μL were transferred to NUNC 96-well plates (7322661, VWR) and the plates were sealed and stored at −20° C. until analysis.
The amount of F-2,6-P2 was quantified based on the coupled enzymatic reaction described by Van Schaftingen. If necessary the samples were further diluted in 20 mM NaOH before quantification. Plates stored at −20° C. were thawed and the F-2,6-P2 quantification was initiated by transferring 40 μL from each well of the NUNC plate to the corresponding position in a trans-parent 96-well SpectraPlate-MB (6005649, PerkinElmer). […]

`COC(=O)c1cccc(NS(=O)(=O)c2sc3c(Cl)cccc3c2C)c1` [Example 122, Methyl 3-{[(7-chloro-3-methyl-1-benzothiophen-2-yl)sulfonyl]amino}benzoate] was tested. Which IC50 did it give?
The IC50 was 8.7 µM.

How did the IC50 turn out when `COC(=O)c1cccc(NS(=O)(=O)c2sc3ccc(Br)cc3c2C)c1` [Example 120, Methyl 3-{[(5-bromo-3-methyl-1-benzothiophen-2-yl)sulfonyl]amino}benzoate] was run?
The IC50 was 3.5 µM.

`COC(=O)c1cccc(NS(=O)(=O)c2sc3ccc(C(C)C)cc3c2C)c1` [Example 92, Methyl 3-({[3-methyl-5-(1-methylethyl)-1-benzothiophen-2-yl]sulfonyl}amino)benzoate] was tested. Which IC50 did it give?
Its IC50 is 0.5 µM.

`COC(=O)Cn1nnc(-c2cccc(NS(=O)(=O)c3sc4ccc(C(C)C)cc4c3C)c2)n1` [Example 119, Methyl {5-[3-({[3-methyl-5-(1-methylethyl)-1-benzothiophen-2-yl]sulfonyl}amino)phenyl]-2H-tetrazol-2-yl}acetate] was tested. Which IC50 did it give?
Its IC50 is 7 µM.

Which IC50 does the source give for `COC(=O)c1cccc(NS(=O)(=O)c2ccc(-c3csc(C)n3)s2)c1` [Example 88, Methyl 3-({[5-(2-methyl-1,3-thiazol-4-yl)-2-thienyl]sulfonyl}amino)benzoate] here?
Its IC50 is 5.4 µM.

With `COC(=O)c1cccc(NS(=O)(=O)c2sc3c(OC)cccc3c2C)c1` [Example 121, Methyl 3-{[(7-methoxy-3-methyl-1-benzothiophen-2-yl)sulfonyl]amino}benzoate] as the molecule, how does the IC50 read?
Its IC50 is 9 µM.

`Cc1c(S(=O)(=O)Nc2cccc(C(=O)OC(C)C)c2)sc2ccc(Cl)cc12` [Example 108, Isopropyl 3-{[(5-chloro-3-methyl-1-benzothien-2-yl)sulfonyl]amino}benzoate] was tested. Which IC50 did it give?
The IC50 was 3.1 µM.

For `Cc1c(S(=O)(=O)Nc2cccc(C(=O)OC3CCOC3)c2)sc2ccc(Cl)cc12` (stereo not drawn) [Example 116, Tetrahydrofuran-3-yl 3-{[(5-chloro-3-methyl-1-benzothiophen-2-yl)sulfonyl]amino}benzoate], which IC50 is on record?
Its IC50 is 1.3 µM.

Which IC50 does the source give for `CCCOC(=O)c1cccc(NS(=O)(=O)c2sc3ccc(Cl)cc3c2C)c1` [Example 112, Propyl 3-{[(5-chloro-3-methyl-1-benzothien-2-yl)sulfonyl]amino}benzoate] here?
The IC50 was 4.3 µM.

For `Cc1c(S(=O)(=O)Nc2cccc(-c3nnn[nH]3)c2)sc2ccc(C(C)C)cc12` [Example 4, 5-Isopropyl-3-methyl-N-[3-(1H-tetrazol-5-yl)phenyl]benzothiophene-2-sulfonamide], which IC50 is on record?
The IC50 was 7.5 µM.

Which IC50 does the source give for `Cc1c(S(=O)(=O)Nc2cccc(C(=O)OCCCN(C)C)c2)sc2ccc(Cl)cc12` [Example 118, 3-(Dimethylamino)propyl 3-{[(5-chloro-3-methyl-1-benzothiophen-2-yl)sulfonyl]amino}benzoate] here?
Its IC50 is 2.8 µM.

Same assay, conditions: Homo sapiens; at 12.5 μM in PANC-1 cells

With `COCCOC(=O)c1cccc(NS(=O)(=O)c2sc3ccc(Cl)cc3c2C)c1` [Example 109, 2-Methoxyethyl 3-{[(5-chloro-3-methyl-1-benzothiophen-2-yl)sulfonyl]amino}benzoate] as the molecule, how does the inhibition at 12.5 µM read?
Its inhibition at 12.5 µM is over 50%.

`CCCCCOC(=O)c1cccc(NS(=O)(=O)c2sc3ccc(Cl)cc3c2C)c1` [Example 113, Pentyl 3-{[(5-chloro-3-methyl-1-benzothiophen-2-yl)sulfonyl]amino}benzoate] was tested. Which inhibition at 12.5 µM did it give?
The inhibition at 12.5 µM was over 50%.

How did the inhibition at 12.5 µM turn out when `CCOC(=O)c1sc(NS(=O)(=O)c2cc(-c3cc(F)ccc3F)c(Cl)s2)nc1C` [Example 127, Ethyl 2-({[5-chloro-4-(2,5-difluorophenyl)thiophen-2-yl]sulfonyl}amino)-4-methyl-1,3-thiazole-5-carboxylate] was run?
Its inhibition at 12.5 µM is over 50%.

With `COC(=O)c1cccc(NS(=O)(=O)c2oc3ccc(C(C)C)cc3c2C)c1` [Example 123, Methyl 3-({[3-methyl-5-(1-methylethyl)-1-benzofuran-2-yl]sulfonyl}amino)benzoate] as the molecule, how does the inhibition at 12.5 µM read?
Its inhibition at 12.5 µM is over 50%.

How did the inhibition at 12.5 µM turn out when `Cc1c(S(=O)(=O)Nc2cccc(C(=O)OCCn3cccc3)c2)sc2ccc(Cl)cc12` [Example 106, 2-(1H-Pyrrol-1-yl)ethyl 3-{[(5-chloro-3-methyl-1-benzothien-2-yl)sulfonyl]amino}benzoate] was run?
The inhibition at 12.5 µM was over 50%.

Which inhibition at 12.5 µM does the source give for `Cc1c(S(=O)(=O)Nc2cccc(C(=O)OCC3CCOC3)c2)sc2ccc(Cl)cc12` (stereo not drawn) [Example 117, Tetrahydrofuran-3-ylmethyl 3-{[(5-chloro-3-methyl-1-benzothiophen-2-yl)sulfonyl]amino}benzoate] here?
The inhibition at 12.5 µM was over 50%.

How did the inhibition at 12.5 µM turn out when `Cc1c(S(=O)(=O)Nc2cccc(C(=O)OCc3ccccc3)c2)sc2ccc(Cl)cc12` [Example 111, Benzyl 3-{[(5-chloro-3-methyl-1-benzothiophen-2-yl)sulfonyl]amino}benzoate] was run?
Its inhibition at 12.5 µM is over 50%.

For `Cc1c(S(=O)(=O)Nc2cccc(C(=O)Oc3ccccc3)c2)sc2ccc(Cl)cc12` [Example 115, Phenyl 3-{[(5-chloro-3-methyl-1-benzothiophen-2-yl)sulfonyl]amino}benzoate], which inhibition at 12.5 µM is on record?
The inhibition at 12.5 µM was over 50%.

`CCOC(=O)c1sc(NS(=O)(=O)c2sc3ccc(Cl)cc3c2C)nc1C` [Example 126, Ethyl 2-{[(5-chloro-3-methyl-1-benzothiophen-2-yl)sulfonyl]amino}-4-methyl-1,3-thiazole-5-carboxylate] was tested. Which inhibition at 12.5 µM did it give?
The inhibition at 12.5 µM was over 50%.

With `CCOC(=O)c1cccc(NS(=O)(=O)c2sc3ccc(Cl)cc3c2C)c1` [Example 107, Ethyl 3-{[(5-chloro-3-methyl-1-benzothien-2-yl)sulfonyl]amino}benzoate] as the molecule, how does the inhibition at 12.5 µM read?
Its inhibition at 12.5 µM is over 50%.
